Literature values, collected in patent publication US8642009B2, “Diagnostic system for the detection of skin cancer” (priority 2005, dated 2014).
Where two headings read alike, the source gives them in different places. Marks after values point to notes of the source that are not given here. Values belong to the substance of their own block, whether it stands above or below them.

How the values were obtained:
[1] = system: OVCAR-3 ovarian carcinoma; conditions: OVCAR-3 tumour model, 120 min p.i.; for Tumour/blood: estimated from graphical presentations
U87MG human glioblastoma = conditions: U87MG tumour model
[2] = system: MDA-MB human breast cancer; conditions: MDA-MB tumour model, 120 min p.i.
M21 human melanoma = conditions: M21 tumour model, 120 min p.i.
[3] = system: DLD-1 human colon adenocarcinoma; conditions: DLD-1 tumour model, 60 min p.i.
[4] = system: CA20948 rat pancreatic tumour; conditions: CA20948 tumour model, 4 h p.i.
[5] = system: ACHN human renal adenocarcinoma; conditions: in vivo
αvβ3 = αvβ3 (Homo sapiens, UniProt P05106+P06756)
Chain of αvβ3 (P06756 31-889 limits assumed): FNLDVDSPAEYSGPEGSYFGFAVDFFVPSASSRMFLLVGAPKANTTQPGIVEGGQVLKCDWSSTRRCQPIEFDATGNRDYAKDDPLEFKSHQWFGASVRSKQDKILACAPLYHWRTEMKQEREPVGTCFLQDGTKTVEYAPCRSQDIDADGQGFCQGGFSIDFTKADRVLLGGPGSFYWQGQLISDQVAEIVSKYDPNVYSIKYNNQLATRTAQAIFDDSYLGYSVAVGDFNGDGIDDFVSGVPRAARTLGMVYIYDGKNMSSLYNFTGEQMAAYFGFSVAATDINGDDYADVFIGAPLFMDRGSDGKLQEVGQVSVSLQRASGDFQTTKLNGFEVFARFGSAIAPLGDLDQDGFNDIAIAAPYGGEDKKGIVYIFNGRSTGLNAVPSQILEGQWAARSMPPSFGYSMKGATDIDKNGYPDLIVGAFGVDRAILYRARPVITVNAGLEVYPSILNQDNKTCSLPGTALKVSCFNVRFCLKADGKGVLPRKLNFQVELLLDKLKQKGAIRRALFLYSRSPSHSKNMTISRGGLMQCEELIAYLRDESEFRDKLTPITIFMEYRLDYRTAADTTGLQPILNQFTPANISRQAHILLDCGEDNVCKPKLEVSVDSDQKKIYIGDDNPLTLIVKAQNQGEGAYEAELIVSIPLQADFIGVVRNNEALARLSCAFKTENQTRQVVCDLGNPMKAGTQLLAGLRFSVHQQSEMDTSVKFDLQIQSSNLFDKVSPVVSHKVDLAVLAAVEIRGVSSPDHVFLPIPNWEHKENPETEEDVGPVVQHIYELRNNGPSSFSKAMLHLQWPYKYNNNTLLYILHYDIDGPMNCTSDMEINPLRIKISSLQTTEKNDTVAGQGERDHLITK
Chain of αvβ3 (P06756 891-1048 partner limits assumed): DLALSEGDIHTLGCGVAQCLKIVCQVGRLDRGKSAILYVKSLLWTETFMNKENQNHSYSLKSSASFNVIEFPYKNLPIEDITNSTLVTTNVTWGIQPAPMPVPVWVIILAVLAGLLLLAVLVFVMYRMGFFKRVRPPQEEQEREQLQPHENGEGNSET
Chain of αvβ3 (P05106 27-788): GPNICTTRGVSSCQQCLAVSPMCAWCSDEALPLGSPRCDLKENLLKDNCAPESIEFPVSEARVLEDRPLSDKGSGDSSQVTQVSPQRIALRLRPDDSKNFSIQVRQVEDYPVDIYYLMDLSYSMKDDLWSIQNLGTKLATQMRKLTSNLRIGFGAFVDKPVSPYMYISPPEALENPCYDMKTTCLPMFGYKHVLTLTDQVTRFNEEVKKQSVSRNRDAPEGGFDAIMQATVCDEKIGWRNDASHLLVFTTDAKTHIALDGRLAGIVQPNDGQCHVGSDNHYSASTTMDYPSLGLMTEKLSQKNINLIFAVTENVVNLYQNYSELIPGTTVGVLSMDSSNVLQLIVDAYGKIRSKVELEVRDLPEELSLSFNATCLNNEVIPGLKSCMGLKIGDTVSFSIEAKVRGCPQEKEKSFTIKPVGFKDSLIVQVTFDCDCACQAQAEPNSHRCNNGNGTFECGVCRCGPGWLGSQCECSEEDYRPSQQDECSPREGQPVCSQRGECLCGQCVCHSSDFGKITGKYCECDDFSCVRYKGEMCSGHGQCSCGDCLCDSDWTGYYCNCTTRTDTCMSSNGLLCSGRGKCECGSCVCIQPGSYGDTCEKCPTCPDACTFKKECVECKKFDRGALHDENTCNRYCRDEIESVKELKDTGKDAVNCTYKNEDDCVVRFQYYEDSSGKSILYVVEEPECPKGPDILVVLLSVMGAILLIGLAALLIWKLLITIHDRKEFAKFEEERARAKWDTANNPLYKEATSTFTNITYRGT

[6] = system: Osteo murine osteosarcoma; conditions: Osteo tumour model
[7] = 4 h p.i., estimated from graphical presentations

Substance: HYNIC-E-[c(RGDfK])2
- Tumour uptake [1]: 5.8 ± 0.5^b % ID/g
- Tumour/blood [1]: 10^g ^

Substance: DOTA-E-[c(RGDfK])2
- Tumour uptake [1]: 7.5 ± 1.5^b % ID/g
- Tumour/blood [1]: 40^g ^

Substance: DKCK-RGD
- Tumour uptake (M21 human melanoma): 1.1 ± 0.1^b % ID/g
- Tumour/blood (M21 human melanoma): 9.7
- Tumour/muscle (M21 human melanoma): 8.1

Substance: c(RGDfMe V)
- Tumour uptake [3]: 0.9 ± 0.1^c % ID/g
- Tumour/blood [3]: 5.2
- Tumour/muscle [3]: 2.7

Substance: DTPA-RGD
- Tumour uptake [4]: 0.1 ± 0.02^d % ID/g
- Tumour/blood [4]: 9.2
- Tumour/muscle [4]: 7.9

Substance: RGD
- IC50 (αvβ3): 0.04 µM
- Tumour uptake (M21 human melanoma): 1.8 ± 0.3^b % ID/g
- Tumour/blood (M21 human melanoma): 7.9
- Tumour/muscle (M21 human melanoma): 6.2

Substance: mPEG-c(RGDyK)
- Tumour uptake (U87MG human glioblastoma; 120 min p.i.): 5.1 ± 0.3^b % ID/g
- Tumour/blood (U87MG human glioblastoma; 120 min p.i.): 85

Substance: DOTA-c(RGDyK)
- Tumour uptake [2]: 1.4 ± 0.1^b % ID/g
- Tumour/blood [2]: 6.9
- Tumour/muscle [2]: 6

Substance: c(RGDyK)
- Tumour uptake [2]: 3.0 ± 0.1^b % ID/g
- Tumour/blood [2]: 20.2
- Tumour/muscle [2]: 4.7

Substance: c(RGDy V)
- Tumour uptake ([6]; 120 min p.i.): 1.5 ± 0.2^b % ID/g
- Tumour/blood ([6]; 120 min p.i.): 8.6
- Tumour/muscle ([6]; 120 min p.i.): 4.9
- IC50 (αvβ3): 0.01 µM

Substance: c(RGDfY)
- Tumour uptake ([6]; 60 min p.i.): 0.4 ± 0.1^c % ID/g
- Tumour/blood ([6]; 60 min p.i.): 1.1
- Tumour/muscle ([6]; 60 min p.i.): 2.7
- IC50 (αvβ3): 0.04 µM

Substance: ((c(RGDfE)HEG)2-K)2-Dpr
- IC50 (αvβ3): 0.0002 µM
- Tumour uptake (M21 human melanoma): 1.7 ± 0.1^b % ID/g
- Tumour/blood (M21 human melanoma): 21.3
- Tumour/muscle (M21 human melanoma): 23.1

Substance: FB-c(RGDyK)
- Tumour uptake [2]: 1.0 ± 0.3^b % ID/g
- Tumour/blood [2]: 12.2
- Tumour/muscle [2]: 5.8

Substance: DOTA-RGD
- Tumour uptake ([6]; 60 min p.i.): 1.1 ± 0.04^c % ID/g
- Tumour/blood ([6]; 60 min p.i.): 11.8
- Tumour/muscle ([6]; 60 min p.i.): 2.8

The remaining lines, values ahead:

- Tumour uptake (U87MG human glioblastoma; 4 h p.i.): 1.6 ± 0.2^d % ID/g
- Tumour/blood (U87MG human glioblastoma; [7]): 80^g ^
- Tumour/muscle (U87MG human glioblastoma; [7]): 16^g ^
Substance: DOTA-PEG-c(RGDyK)

- Tumour uptake [2]: 4^b,g % ID/g
Substance: FP-E-c(RGDyK)2

- Tumour uptake (U87MG human glioblastoma; 120 min p.i.): 7.6 ± 0.6^b % ID/g
Substance: DOTA-E[E-c(RGDyK)z]2

- Tumour uptake (U87MG human glioblastoma; 120 min p.i.): 2.6 ± 0.1^b % ID/g
- Tumour/blood (U87MG human glioblastoma; 120 min p.i.): 18.4
- Tumour/muscle (U87MG human glioblastoma; 120 min p.i.): 25.6
Substance: FP-PEG-c(RGDyK)

- Tumour/blood [5]: 1.6
- Tumour/muscle [5]: 2.6
Substance: RGD-4C

- IC50 (αvβ3): 0.003 µM
- Tumour uptake (M21 human melanoma): 1.6 ± 0.1^b % ID/g
- Tumour/blood (M21 human melanoma): 12.4
- Tumour/muscle (M21 human melanoma): 14.2
Substance: (c(RGDfE)HEG)2-K-Dpr

- IC50 (αvβ3; IC50 value for the corresponding compound): 0.02 µM
- Tumour uptake (M21 human melanoma): 0.5 ± 0.1^b % ID/g
- Tumour/blood (M21 human melanoma): 12.4
- Tumour/muscle (M21 human melanoma): 13.2
Substance: c(RGDfE)HEG-Dpr
